We go through three molecules from publication PMC3404088, “Development of a Small D-Enantiomeric Alzheimer’s Amyloid-β Binding Peptide Ligand for Future In Vivo Imaging Applications” (PLoS ONE, 2012).

Assay [1] has as its target T1, Aβ1–42 fibrils (Homo sapiens, UniProt P05067).
T1 construct: Aβ1–42 was dissolved in hexafluoroisopropanol (HFIP)
Nature of the assay: SPR single cycle experiments (Biacore T100), heterogeneous ligand model. It counts as binding. Also on record: Rmax1 / Rmax2 / k off2: unit not given here. The following applies: for Rmax2 / k off1 / k off2 / k on1 / k on2 / Rmax1: PBS pH 7.4, 25°C, 30 µl/min; for Rmax1: global fit of three lowest responding concentrations. The method, then: Aβ1–42 fibrils were prepared as described above. Thereafter, the sample was centrifuged for 10 min at 16000×g, the supernatant discarded and this procedure repeated for 3 times. Formation of fibrils was confirmed by a standard Thioflavin-T fluorescence assay. Aβ1–42 fibrils were covalently immobilized on a CM5 sensor chip via amine coupling. Prior to immobilization of Aβ1–42 fibrils the sample was centrifuged and fibrils resuspended in 10 mM sodium acetate buffer pH 4.0. Flow cell sensor surfaces were activated with a freshly prepared solution of 0.2 M 1-ethyl–3-(3-dimethylaminopropyl)-carbodiimide (EDC) and 0.05 M N-hydroxysuccinimide (NHS) at a constant flow rate of 10 µl/min for 420 s. Aβ1–42 fibrils (∼ 110 µM monomeric Aβ1–42) were injected for 600 s with a flow rate of 10 µl/min. Deactivation of the surface was performed by injection of 1 M ethanolamine-HCl pH 8.5 at the same flow rate and duration as in the activation step. In the reference cells the deactivation step was performed directly after the activation step. All SPR experiments were performed on a Biacore T100 system with series S CM5 sensor chips at 25°C. The system was run with the Biacore T100 Control Software Version 1.1.1. PBS (10 mM sodium phosphate buffer pH 7.4, 137 mM NaCl, 2.7 mM KCl) was chosen as running buffer (as previously during fibril formation) in order to minimize alterations of fibril organization. All buffers were sterile filtered (0.22 µm). After each docking of a sensor chip the detector was normalized with BIAnormalizing solution (70% glycerol, GE Healthcare) to compensate for slight differences in detector responses of individual sensor chips. For all interaction analyses the Type 1 reagent rack was used. Siliconized sample vials were used with their corresponding rubber caps (Type 2, GE Healthcare) to minimize evaporation effects. Throughout all runs the flow rate was set to 30 µl/min. All interaction studies were performed in single-cycle mode. Here, five different concentrations of analyte were passed through a reference cell and subsequently through flow cells with immobilized ligand within the same binding cycle for 60 seconds, starting with the lowest concentration. Successive injections were performed in the order of increasing concentrations. Each following concentration was a fivefold increase of the previous. The lowest analyte concentration was chosen to be 100 nM and therefore the following were 500, 2500, 12500 and 62500 nM. Biacore data were evaluated using BiaEvaluation 4.1.1 (GE Healthcare) and Biacore T100 Evaluation Software (GE Healthcare). Obtained binding data with compounds were double referenced. This was achieved by collecting the data in dual-channel mode with a reference flow cell connected upstream of the flow cell with immobilized Aβ1–42 fibrils and the subtraction of the obtained binding responses with a blank buffer injection (PBS).
Background: SPR reads the build-up and loss of mass on a sensor chip optically.

Assay [2] deals with T2, Aβ plaques in brain sections of transgenic APP (V717I) x PS1 (A246E) mice (Homo sapiens, UniProt P05067).
T2 construct: triple image overlay of respective stains reveal that the ϕ-compounds identify plaques; from tissue; host or cells: brain cryosections of APP (V717I) x PS1 (A246E) transgenic mice
Kind of assay: Ex vivo staining of mouse brain slices by FITC labeled compounds. The settings on record: for staining / recognition of Aβ plaques: 0.01 mg/ml ϕ-labeled compound, 2 h, 10 µm cryostat sections; for staining / recognition of Aβ plaques / background signal / staining pattern: fluorescence microscopy; for background signal: 0.01 mg/ml; for overlay with 6E10 anti-Aβ staining: co-staining with 6E10 (2 µg/ml) and DAPI, triple overlay. The procedure:
In vitro tissue section staining was performed according to previously described protocols with slight modifications. Mouse brains were obtained from male transgenic (tg) APP (London mutation V717l) x PS1 (A246E) mice aged 13–21 months and from female wild type (wt) mice aged 9–10 months. The mice were anesthetized and transcardially perfused with saline. The brains were removed and snap frozen. 10 µm thick sagittal cryostat sections through the whole mouse brain were produced and mounted onto glass slides. ϕ-labeled compounds were applied to investigate binding. Thus, the slides were thawed, washed in PBS and fixed in 4% paraformaldehyde (20 min at RT) just before incubation with ϕ-labeled compounds. One series of sections was treated only with fluorescent compounds (0.01 mg/ml, incubation time 2 h) while another series of sections were incubated with anti-Aβ antibody 6E10 at 1∶500 dilution (SIG-39320, Covance; final antibody concentration was 2 µg/ml) in addition to ϕ-labeled compounds (0.01 mg/ml). The slices were washed in PBS. The sections incubated with ϕ-labeled compound and 6E10 antibody were further incubated for 2 h at RT with Goat-anti-Mouse IgG1– AlexaFluor 555 (A21127, Invitrogen, 1∶1000 dilution) and washed with PBS. Finally, all sections were counterstained with 4’–6-Diamidino-2-phenylindole (DAPI, 32670, Sigma, incubation 5 min at RT) for the visualization of cell nuclei. The slides were mounted using Prolong Gold Antifade mounting medium (P36930, Invitrogen) and coverslipped.
The tissues were analyzed using a fluorescent Zeiss Axioscope 2 Plus microscope using the AxioVision 4 image analysis software.
A further series of slices was stained using a primary anti-fluorescein isothiocyanate antibody combined with alkaline phosphatase reaction for visualization of ϕ-labeled peptides. Briefly, the sections were treated with blocking solution (10% normal goat serum (NGS), 0.25% Triton X-100 in PBS for 1 h at RT) and incubated with primary antibody (rabbit-anti-FITC; Invitrogen) at a dilution of 1∶500. The sections were then washed and incubated for 2 h at RT with the secondary antibody goat-anti-rabbit-alkaline phosphatase (Sigma) at a dilution of 1∶100. After washing, the slides were incubated with BCIP/NBT substrate (Sigma) for 3 min, washed, dehydrated and mounted using Eukitt mounting medium.

Entries after “also recorded” stand apart in the source; their conditions may differ. Square brackets hold non-standard residues; d marks the D form. Peptide text beside a SMILES is read from it. * marks the point of attachment. 5FAM = O=C1OC2(c3ccc(O)cc3Oc3cc(O)ccc32)c2ccc(C(=O)*)cc21

As for `CC[C@@H](C)[C@@H](NC(=O)[C@@H](Cc1c[nH]cn1)NC(=O)[C@@H](CCCNC(=N)N)NC(=O)[C@@H](Cc1ccc(O)cc1)NC(=O)[C@@H](Cc1c[nH]cn1)NC(=O)[C@@H](CO)NC(=O)[C@H](N)CCC(N)=O)C(=O)N[C@H](CO)C(=O)N1CCC[C@@H]1C(=O)N[C@H](C)C(=O)N[C@H](CCC(N)=O)C(=O)N[C@H](CCCCN)C(=O)N[C@H](CCCCNC(=O)c1ccc2c(c1)C(=O)OC21c2ccc(O)cc2Oc2cc(O)ccc21)C(=O)O` [ACI-87-Kϕ] (H-[dQ][dS][dH][dY][dR][dH][dI][dS][dP][dA][dQ][dK][dK](5FAM)-OH; N-terminus and C-terminus assumed), in assay [1], the Rmax2 was determined as 36.2, the “k off1” value was found to be 1.84e-3, the “k off2” value came to 0.0407 and the “k on1” value amounted to 206. Besides, in assay [1], the “k on2” value was 1.57e3 and the Rmax1 amounted to 43.3. Also, in assay [2], the “staining / recognition of Aβ plaques” value is given as “readily recognized amyloid plaques”, the “background signal” value was “high background fluorescence” and the “overlay with 6E10 anti-Aβ staining” value is on record as “nearly no overlay with 6E10 anti-Aβ was detected”.

As to `CC[C@@H](C)[C@@H](NC(=O)[C@@H](Cc1c[nH]cn1)NC(=O)[C@@H](CCCNC(=N)N)NC(=O)[C@@H](Cc1ccc(O)cc1)NC(=O)[C@@H](Cc1c[nH]cn1)NC(=O)[C@H](N)CO)C(=O)N[C@H](CO)C(=O)N1CCC[C@@H]1C(=O)N[C@H](C)C(=O)N[C@H](CCC(N)=O)C(=O)N[C@H](CCCCN)C(=O)N[C@H](CCCCNC(=O)c1ccc2c(c1)C(=O)OC21c2ccc(O)cc2Oc2cc(O)ccc21)C(=O)O` [ACI-88-Kϕ] (H-[dS][dH][dY][dR][dH][dI][dS][dP][dA][dQ][dK][dK](5FAM)-OH; N-terminus and C-terminus assumed), in assay [1], the “dissociation constant (lowest K D of the two, words)” value is on record as “submicromolar range”; the Rmax2 amounted to 63.3; the “k off1” value is 7.22e-3; the “k off2” value is 0.0553. In addition, in assay [1], the “k on1” value stood at 1.71e4, the “k on2” value is on record as 930 and the Rmax1 amounted to 9.96. In assay [2], the “staining / recognition of Aβ plaques” value is listed as “stained plaques most intensively; also recorded: readily recognized amyloid plaques”, the “background signal” value is “lowest background signal of all peptides”, the “overlay with 6E10 anti-Aβ staining” value was “match 6E10 anti-Aβ staining quite well; also recorded: good overlap with 6E10 Aβ staining” and the “staining pattern” value was “stained the core of plaques”.

`CC[C@@H](C)[C@@H](NC(=O)[C@@H](Cc1c[nH]cn1)NC(=O)[C@@H](CCCNC(=N)N)NC(=O)[C@@H](Cc1ccc(O)cc1)NC(=O)[C@@H](Cc1c[nH]cn1)NC(=O)[C@@H](CO)NC(=O)[C@H]1CCCN1)C(=O)N[C@H](CO)C(=O)N1CCC[C@@H]1C(=O)N[C@H](C)C(=O)N[C@H](CCC(N)=O)C(=O)N[C@H](CCCCN)C(=O)N[C@H](CCCCNC(=O)c1ccc2c(c1)C(=O)OC21c2ccc(O)cc2Oc2cc(O)ccc21)C(=O)O` [ACI-89-Kϕ] (H-[dP][dS][dH][dY][dR][dH][dI][dS][dP][dA][dQ][dK][dK](5FAM)-OH; N-terminus and C-terminus assumed): in assay [1], the Rmax2 amounted to 19.4, the “k off1” value was found to be 0.162, the “k off2” value is 0.0118 and the “k on1” value amounted to 2.03e4. Moreover, in assay [1], the “k on2” value was determined as 3.34e3 and the Rmax1 is 21.8. Besides, in assay [2], the “staining / recognition of Aβ plaques” value is on record as “stained plaques most intensively; also recorded: readily recognized amyloid plaques”, the “overlay with 6E10 anti-Aβ staining” value is reported as “match 6E10 anti-Aβ staining quite well” and the “staining pattern” value is recorded as “more similar to the one of 6E10 which also stains diffuse Aβ plaques”. For the same molecule, the “plaque detection via anti-fluorescein isothiocyanate antibody and alkaline phosphatase” value in assay [2] (tg mouse brain slices immersed in ϕ-peptide, BCIP/NBT chromogenic detection, light microscope) was “abundant chromogenic deposits”.
